Assay [1] addresses T1, rat liver squalene synthase (Rattus norvegicus, UniProt Q02769).
T1 construct: host or cells: rat liver
T1 sequence (Q02769 1-416): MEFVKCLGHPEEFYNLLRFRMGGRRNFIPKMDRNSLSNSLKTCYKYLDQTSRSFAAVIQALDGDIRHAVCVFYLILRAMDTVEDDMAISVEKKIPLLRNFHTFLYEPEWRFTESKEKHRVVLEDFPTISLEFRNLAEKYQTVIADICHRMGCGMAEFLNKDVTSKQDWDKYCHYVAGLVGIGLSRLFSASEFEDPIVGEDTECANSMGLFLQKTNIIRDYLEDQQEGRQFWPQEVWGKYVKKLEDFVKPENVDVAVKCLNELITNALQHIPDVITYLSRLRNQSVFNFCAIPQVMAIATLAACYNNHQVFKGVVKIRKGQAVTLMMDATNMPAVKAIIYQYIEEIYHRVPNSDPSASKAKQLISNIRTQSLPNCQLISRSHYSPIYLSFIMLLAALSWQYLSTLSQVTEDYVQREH
Conditions: cited from earlier work.

Assay [2] has as its system sterol synthesis. Conditions: incorporation of 14C-MVA into sterol, rat liver cell-free system; read-out: IC50, block of sterol synthesis; cited from earlier work.
Assay [3] relates to osteoclasts. The conditions noted are these: osteoclasts in culture; cited from earlier work.
Assay [4] deals with geranylgeranyl diphosphate synthase. An excerpt: The present invention relates to a method for identifying inhibitors of geranylgeranyl diphosphate synthase comprising:
a). contacting a putative geranylgeranyl diphosphate synthase inhibitor with a geranylgeranyl diphosphate synthase assay solution, and
b). determining, i.e. comparing, the geranylgeranyl diphosphate synthase activity of said assay solution with a geranylgeranyl diphosphate synthase assay solution not contacted with said putative inhibitor, in order to determine the amount of inhibition.
In these methods the geranylgeranyl diphosphatesynthase assay solution is typically an aqueous solution. The inhibition effect is measured with respect to the catalysis of an appropriate reaction that one of ordinary skill in the art can select. Reaction times, conditions, quatitation methods, and other variables are chosen for convenience to obtain a readily quantitated system for measuring the inhibition of the geranylgeranyl diphosphate synthase.
Additionally, in these methods of identifying inhibitors of geranylgeranyl diphosphate synthase, the enzyme can be used in a crude, unpurified state, from various tissues sources, e.g., liver. Alternatively, the enzyme can be used in a partially purified state, a purified state, or as an expressed form of the enzyme, e.g., the expressed human enzyme.

As for `O=P(O)(O)C(O)(CCN1CCCC1)P(=O)(O)O` [EB 1053, 1-hydroxy-3-(1-pyrrolidinyl)-propylidene-1,1-bisphosphonic acid], the “inhibition of squalene synthase” value in assay [1] was “potent, nanomolar inhibitors”.

Regarding `O=P(O)(O)C(NC1CCCCCC1)P(=O)(O)O` [YM 175, Cycloheptylaminomethylene-1,1-bisphosphonic acid], in assay [1], the “inhibition of squalene synthase” value was “potent, nanomolar inhibitors”.

As for `NCCCC(O)(P(=O)(O)O)P(=O)(O)O` [alendronate, 4-amino-1-hydroxybutylidene-1,1-bisphosphonic acid monosodium trihydrate], the IC50 in assay [2] is 168 nM. For the same compound, in assay [1], the “inhibition of squalene synthase” value is reported as “comparatively little effect”. Besides, in assay [3], the bone resorption result is recorded as “inhibited” and the osteoclast formation result is recorded as “inhibited”.

In the case of `CC[C@H](C)C(=O)O[C@H]1C[C@@H](C)C=C2C=C[C@H](C)[C@H](CC[C@@H]3C[C@@H](O)CC(=O)O3)[C@H]21` [lovastatin], in assay [3], the bone resorption entry is listed as “inhibited” and the osteoclast formation result is listed as “inhibited”.

As for `NCCC(O)(P(=O)(O)O)P(=O)(O)O` [pamidronate, 3-amino-1-hydroxypropylidene-1,1-bisphosphonic acid], the half-inhibitory concentration (IC50) in assay [2] was 420 nM. Besides, the “inhibition of squalene synthase” value in assay [1] is “comparatively little effect”.

On to `O=P(O)(O)C(O)(Cc1cccnc1)P(=O)(O)O` [risedronate, 1-hydroxy-2-(3-pyridinyl)-ethylidene-1,1-bisphosphonic acid], for which the “inhibition of geranylgeranyl diphosphate synthase” value in assay [4] was “specific nanomolar inhibitors”.

For orientation: IC50 means the concentration that gives 50% inhibition.

The values are drawn from patent US20020004218A1, “Methods for identifying compounds useful for inhibiting geranylgeranyl diphosphate synthase” (priority 2000, published 2002).
